Source: patent US10646469B2, “Substituted indole derivatives as dengue viral replication inhibitors” (Janssen Pharmaceuticals, Inc., priority 2016, dated 2020)

Assays:
DENV-4 strain H241 = experiment: Tetravalent RT-qPCR assay, serotype 4; format: cell-based; conditions: Dengue virus, DENV4, 72 h; RT-qPCR serotype 4 H241, Protocol A, Vero cells, day 3
Procedure: (§1) The antiviral activity of the compounds of the invention was tested against DENV-1 strain TC974 #666 (NCPV), DENV-2 strain 16681, DENV-3 strain H87 (NCPV) and DENV-4 strain H241 (NCPV) in a RT-qPCR assay. Therefore, Vero cells were infected with either DENV-1, or -2, or -3, or -4 in the presence or absence of test compounds. At day 3 post-infection, the cells were lysed and cell lysates were used to prepare cDNA of both a viral target (the 3′UTR of DENV; Table 2) and cellular reference gene (β-actin, Table 2). Subsequently, a duplex real time PCR was performed on a Lightcycler480 instrument. The generated Cp value is inversely proportional to the amount of RNA expression of these targets. Inhibition of DENV replication by a test compound results in a shift of Cp's for the 3′UTR gene. On the other hand, if a test compound is toxic to the cells, a similar effect on β-actin expression will be observed. The comparative ΔΔCp method is used to calculate EC50, which is based on the relative gene expression of the target gene (3′UTR) normalized with the cellular housekeeping gene (β-actin). In addition, CC50 values are determined based on the Cp values acquired for the housekeeping gene β-actin.
(§2) The culture medium consisted of minimal essential medium supplemented with 2% of heat-inactivated fetal calf serum, 0.04% gentamycin (50 mg/mL) and 2 mM of L-glutamine. Vero cells, obtained from ECACC, were suspended in culture medium and 75 μL/well was added in 96-well plates (10000 cells/well), which already contain the antiviral compounds. […] In addition, each plate contains wells which are assigned as virus controls (containing cells and virus in the absence of compound) and cell controls (containing cells in the absence of virus and compound). Once the cells were added in the plates, the plates were incubated in a fully humidified incubator (37° C., 5% CO2) until the next day. Dengue viruses serotype-1, 2, 3 and 4 were diluted in order to obtain a Cp of ˜22-24 in the assay. Therefore, 25 μL of virus suspension was added to all the wells containing test compound and to the wells assigned as virus control. In parallel, 25 μL of culture medium was added to the cell controls. Next, the plates were incubated for 3 days in a fully humidified incubator (37° C., 5% CO2). After 3 days, the supernatant was removed from the wells and the cells were washed twice with ice-cold PBS (˜100 μL). The cell pellets within the 96-well plates were stored at −80° C. for at least 1 day. Next, RNA was extracted using the Cells-to-CT™ lysis kit, according to the manufacturer's guideline (Life Technologies). The cell lysates can be stored at −80° C. or immediately used in the reverse transcription step.
(§3) In preparation of the reverse transcription step, mix A (table 3A) was prepared and 7.57 μL/well was dispensed in a 96-well plate. After addition of 5 μL of the cell lysates, a five minute denaturation step at 75° C. was performed (table 3B). Afterwards, 7.43 μL of mix B was added (table 3C) and the reverse transcription step was initiated (table 3D) to generate cDNA.
(§4) Finally, a RT-qPCR mix was prepared, mix C (table 4A), and 22.02 μL/well was dispensed in 96-well LightCycler qPCR plates to which 3 μL of cDNA was added and the qPCR was performed according to the conditions in table 4B on a LightCycler 480.
(§5) Using the LightCycler software and an in-house LIMS system, dose response curves for each compound were calculated and the half maximal effective concentration (EC50) and the half maximal cytotoxic concentration (CC50) were determined (Tables 5-8).

[1] = Cytotoxicity in RT-qPCR assay (Cp of housekeeping gene β-actin); format: cell-based; conditions: African green monkey
Procedure: as §1, §2, §5

DENV-1 strain TC974 #666 = experiment: Tetravalent RT-qPCR assay, serotype 1; format: cell-based; conditions: Dengue virus, DENV1, 72 h; RT-qPCR serotype 1 TC974#666, Protocol A, Vero cells, day 3
Procedure: as §1, §2, §3, §4, §5

[2] = Toxicity on the same plates (ATPlite cell viability); conditions: African green monkey, CC50, Vero cells, same plates as DENV-2 antiviral assay
DENV-2 16681 strain = experiment: DENV-2 antiviral assay (eGFP-labeled virus in Vero cells); format: cell-based, Dengue virus; conditions: DENV-2 16681 eGFP, MOI 0.5, 3 days
Procedure: The antiviral activity of all the compounds of the invention was tested against the DENV-2 16681 strain which was labeled with enhanced green fluorescent protein (eGPF). The culture medium consists of minimal essential medium supplemented with 2% of heat-inactivated fetal calf serum, 0.04% gentamycin (50 mg/mL) and 2 mM of L-glutamine. Vero cells, obtained from ECACC, were suspended in culture medium and 25 μL was added to 384-well plates (2500 cells/well), which already contain the antiviral compounds. Typically, these plates contain a 5-fold serial dilution of 9 dilution steps of the test compound at 200 times the final concentration in 100% DMSO (200 nL). […] Finally, each plate contains wells which are assigned as virus controls (containing cells and virus in the absence of compound), cell controls (containing cells in the absence of virus and compound) and medium controls (containing medium in the absence of cells, virus and compounds). To the wells assigned as medium control, 25 μL of culture medium was added instead of Vero cells. Once the cells were added to the plates, the plates were incubated for 30 minutes at room temperature to allow the cells to distribute evenly within the wells. Next, the plates were incubated in a fully humidified incubator (37° C., 5% CO2) until the next day. Then, DENV-2 strain 16681, labeled with eGFP, was added at a multiplicity of infection (MOI) of 0.5. Therefore, 15 μL of virus suspension was added to all the wells containing test compound and to the wells assigned as virus control. In parallel, 15 μL of culture medium was added to the medium and cell controls. Next, the plates were incubated for 3 days in a fully humidified incubator (37° C., 5% CO2). At the day of the read out, the eGFP fluorescence was measured using an automated fluorescence microscope at 488 nm (blue laser). Using an in-house LIMS system, inhibition dose response curves for each compound were calculated and the half maximal effective concentration (EC50) was determined. Therefore, the percent inhibition (I) for every test concentration is calculated using the following formula: I=100*([…])/(SVC−SCC); ST, SCC and SVC are the amount of eGFP signal in the test compound, cell control and virus control wells, respectively. The EC50 represents the concentration of a compound at which the virus replication is inhibited with 50%, as measured by a 50% reduction of the eGFP fluorescent intensity compared to the virus control. The EC50 is calculated using linear interpolation (Table 1).

DENV-3 strain H87 = experiment: Tetravalent RT-qPCR assay, serotype 3; format: cell-based; conditions: Dengue virus, DENV3, 72 h; RT-qPCR serotype 3 H87, Protocol A, Vero cells, day 3
Procedure: as §1, §2, §3, §4, §5

DENV-2 strain 16681 = experiment: Tetravalent RT-qPCR assay, serotype 2; format: cell-based; conditions: Dengue virus, DENV2, 72 h; RT-qPCR serotype 2 16681, Protocol A, Vero cells, day 3
Procedure: as §1, §2, §3, §4, §5

Vero cells = experiment: Toxicity on the same plates (ATPlite cell viability); conditions: Vero cells, same plates as DENV-2 antiviral assay
[3] = RT-qPCR serotype 1 TC974#666, Protocol A
[4] = RT-qPCR serotype 2 16681, Protocol A
[5] = RT-qPCR serotype 3 H87, Protocol A
[6] = RT-qPCR serotype 4 H241, Protocol A

Row | SMILES | EC50 (DENV-4 strain H241) | CC50 at 3 days [1, 3] | CC50 at 3 days [1, 4] | CC50 at 3 days [1, 5] | CC50 at 3 days [1, 6] | EC50 (DENV-1 strain TC974 #666) | CC50 [2] | EC50 (DENV-2 16681 strain) | EC50 (DENV-3 strain H87) | EC50 (DENV-2 strain 16681) | CC50 (Vero cells)
1 | COc1cc(NC(C(=O)c2c[nH]c3cc(OC)c(C(F)(F)F)cc23)c2ccc(F)cc2OC)cc(OCCO)c1 (single isomer, unassigned) [Compound 2A, 2-(4-fluoro-2-methoxyphenyl)-2-((3-(2-hydroxyethoxy)-5-methoxyphenyl)amino)-1-(6-methoxy-5-(trifluoromethyl)-1H-indol-3-yl)ethanone] | 62 nM | > 2500 nM | 3200 nM | > 1900 nM | > 2100 nM | 2.2 nM | 3.5 µM | 0.45 nM | 19 nM | 0.25 nM | –
2 | COc1cc(NC(C(=O)c2c[nH]c3c(C)cc(OC(F)(F)F)cc23)c2ccc(F)cc2OC)cc(OCCO)c1 (single isomer, unassigned) [Compound 8A, 2-(4-fluoro-2-methoxyphenyl)-2-((3-(2-hydroxyethoxy)-5-methoxyphenyl)amino)-1-(7-methyl-5-(trifluoromethoxy)-1H-indol-3-yl)ethanone] | 48 nM | 2100 nM | 3700 nM | > 2400 nM | 2600 nM | 0.71 nM | – | 0.35 nM | 5.8 nM | 0.31 nM | 2900 nM
3 | COc1cc(NC(C(=O)c2c[nH]c3ccc(C(F)(F)F)cc23)c2ccc(Cl)cc2OC)cc(OCCO)c1 (single isomer, unassigned) [Compound 9B, 2-(4-chloro-2-methoxyphenyl)-2-((3-(2-hydroxyethoxy)-5-methoxyphenyl)amino)-1-(5-(trifluoromethyl)-1H-indol-3-yl)ethanone] | 50 nM | > 2000 nM | 3400 nM | > 2500 nM | 2700 nM | 0.88 nM | – | 0.18 nM | 6.3 nM | 0.27 nM | 3300 nM
4 | COc1cc(NC(C(=O)c2c[nH]c3c(C)cc(C(F)(F)F)cc23)c2ccc(Cl)cc2OC)cc(OCCO)c1 (single isomer, unassigned) [Compound 12A, 2-(4-chloro-2-methoxyphenyl)-2-((3-(2-hydroxyethoxy)-5-methoxyphenyl)amino)-1-(7-methyl-5-(trifluoromethyl)-1H-indol-3-yl)ethanone] | 30 nM | > 2500 nM | > 2500 nM | > 2500 nM | > 2400 nM | 0.4 nM | – | 0.16 nM | 3.9 nM | 0.22 nM | 2600 nM
5 | COc1cc(NC(C(=O)c2c[nH]c3cc(OC)c(OC(F)(F)F)cc23)c2ccc(Cl)cc2OC)cc(OCCO)c1 (single isomer, unassigned) [Compound 14A, 2-(4-chloro-2-methoxyphenyl)-2-((3-(2-hydroxyethoxy)-5-methoxyphenyl)amino)-1-(6-methoxy-5-(trifluoromethoxy)-1H-indol-3-yl)ethanone] | 25 nM | > 2100 nM | 3800 nM | > 2300 nM | 1600 nM | 0.92 nM | – | 0.17 nM | 5.1 nM | 0.17 nM | 2500 nM
6 | COc1cc(NC(C(=O)c2c[nH]c3cc(F)c(OC(F)(F)F)cc23)c2ccc(Cl)cc2OC)cc(OCCO)c1 (single isomer, unassigned) [Compound 15B, 2-(4-chloro-2-methoxyphenyl)-1-(6-fluoro-5-(trifluoromethoxy)-1H-indol-3-yl)-2-((3-(2-hydroxyethoxy)-5-methoxyphenyl)amino)ethanone] | 31 nM | 1500 nM | > 2100 nM | > 2400 nM | 1600 nM | 0.46 nM | – | 0.29 nM | 3.2 nM | 0.15 nM | 2600 nM
